In ChEMBL document CHEMBL2169754, “Imidazo[1,2-a]pyridines That Directly Interact with Hepatitis C NS4B: Initial Preclinical Characterization” (ACS Med Chem Lett, 2012):

Experiments:
Hepatitis C virus [1] = assay: Antiviral activity against wild type HCV genotype 1a infected in human HuH7 cells after 48 hrs by luciferase reporter gene assay; format: functional, organism-based, Hepacivirus hominis; conditions: subtype 1a, Huh-7, 48 h
Hepatitis C virus [2] = assay: Displacement of [3H]-3-(1-(3-chloro-6-isopropyl-8-(trifluoromethyl)imidazo[1,2-a]pyridine-2-carbonyl)piperidin-4-yl)oxazolidin-2-one from HCV genotype 1b His6-tagged NS4B expressed in baculovirus infected Sf9 cells after overnight incubation; set-up: species or system Hepatitis C virus subtype 1b
Hepatitis C virus [3] = assay: Antiviral activity against wild type HCV genotype 1b infected in human HuH7 cells after 48 hrs by luciferase reporter gene assay; format: functional, organism-based, Hepacivirus hominis; conditions: Huh-7, 48 h
[4] = Solubility of the compound; format: physicochemical
[5] = Oral bioavailability in Sprague-Dawley rat at 5 mg/kg; format: ADME, organism-based; conditions: in vivo
Liver microsomes [6] = assay: Drug metabolism in human liver microsomes assessed as reactive metabolite formation at 10 uM after 30 mins by glutathione trapping assay; format: ADME, Microsome; conditions: 0.5 h
Cytochrome P450 2C9 = Cytochrome P450 2C9 (Homo sapiens, UniProt P11712); assay: Inhibition of CYP2C9 in human liver microsomes after 10 mins by LC/MS/MS analysis; format: ADME, Microsome
Cytochrome P450 3A4 = Cytochrome P450 3A4 (Homo sapiens, UniProt P08684); assay: Inhibition of CYP3A4 in human liver microsomes after 7 mins by LC/MS/MS analysis; format: ADME, Microsome
[7] = Clearance in Sprague-Dawley rat at 1 mg/kg, iv; format: ADME, organism-based; set-up: dose 1 mg/kg, route intravenous; conditions: in vivo
Cytochrome P450 1A2 = biological target: T1, Cytochrome P450 1A2 (Homo sapiens, UniProt P05177); assay: Inhibition of CYP1A2 in human liver microsomes after 10 mins by LC/MS/MS analysis; format: ADME, Microsome
T1 sequence (P05177 whole entry): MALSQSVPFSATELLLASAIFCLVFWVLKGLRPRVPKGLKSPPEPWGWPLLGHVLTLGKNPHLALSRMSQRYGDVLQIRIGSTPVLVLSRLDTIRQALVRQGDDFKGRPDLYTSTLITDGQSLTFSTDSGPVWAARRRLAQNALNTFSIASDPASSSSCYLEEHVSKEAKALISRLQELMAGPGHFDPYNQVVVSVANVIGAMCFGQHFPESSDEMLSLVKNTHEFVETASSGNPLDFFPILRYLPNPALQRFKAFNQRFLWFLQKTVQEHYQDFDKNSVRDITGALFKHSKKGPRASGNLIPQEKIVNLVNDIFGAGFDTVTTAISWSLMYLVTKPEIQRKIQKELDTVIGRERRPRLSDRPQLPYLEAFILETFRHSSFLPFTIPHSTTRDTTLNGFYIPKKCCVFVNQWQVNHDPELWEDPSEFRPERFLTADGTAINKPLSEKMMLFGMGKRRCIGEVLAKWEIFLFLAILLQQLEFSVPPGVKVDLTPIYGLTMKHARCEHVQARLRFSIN

[8] = AUC (0 to 24 hrs) in Sprague-Dawley rat at 5 mg/kg, po; format: ADME, organism-based; set-up: time < 24 hr, dose 5 mg/kg, route oral; conditions: plasma
Cytochrome P450 2D6 = Cytochrome P450 2D6 (Homo sapiens, UniProt P10635); assay: Inhibition of CYP2D6 in human liver microsomes after 10 mins by LC/MS/MS analysis; format: ADME, Microsome
[9] = Volume of distribution at steady state in Sprague-Dawley rat at 1 mg/kg, iv; format: ADME, organism-based; set-up: dose 1 mg/kg, route intravenous; conditions: in vivo, read-out: Vdss
Liver microsomes [10] = assay: Drug metabolism in rat liver microsomes assessed as reactive metabolite formation at 10 uM after 30 mins by glutathione trapping assay; format: ADME, Microsome; conditions: 0.5 h
Cytochrome P450 2C19 = Cytochrome P450 2C19 (Homo sapiens, UniProt P33261); assay: Inhibition of CYP2C19 in human liver microsomes after 10 mins by LC/MS/MS analysis; format: ADME, Microsome
[11] = Half life in Sprague-Dawley rat at 5 mg/kg, po; format: ADME, organism-based; set-up: dose 5 mg/kg, route oral; conditions: in vivo
Hepatocyte [12] = assay: Drug metabolism in human hepatocytes assessed as pendant cyclohexyl oxidation; format: ADME, cell-based
Hepatocyte [13] = assay: Drug metabolism in rat hepatocytes assessed as pendant cyclohexyl oxidation; format: ADME, cell-based
Hepatitis C virus [14] = assay: Binding affinity to HCV genotype 1b His6-tagged NS4B expressed in baculovirus infected Sf9 cells after overnight incubation; conditions: Hepatitis C virus subtype 1b, tested as the 3H-labelled form

Sequence of Cytochrome P450 3A4 (P08684 whole entry): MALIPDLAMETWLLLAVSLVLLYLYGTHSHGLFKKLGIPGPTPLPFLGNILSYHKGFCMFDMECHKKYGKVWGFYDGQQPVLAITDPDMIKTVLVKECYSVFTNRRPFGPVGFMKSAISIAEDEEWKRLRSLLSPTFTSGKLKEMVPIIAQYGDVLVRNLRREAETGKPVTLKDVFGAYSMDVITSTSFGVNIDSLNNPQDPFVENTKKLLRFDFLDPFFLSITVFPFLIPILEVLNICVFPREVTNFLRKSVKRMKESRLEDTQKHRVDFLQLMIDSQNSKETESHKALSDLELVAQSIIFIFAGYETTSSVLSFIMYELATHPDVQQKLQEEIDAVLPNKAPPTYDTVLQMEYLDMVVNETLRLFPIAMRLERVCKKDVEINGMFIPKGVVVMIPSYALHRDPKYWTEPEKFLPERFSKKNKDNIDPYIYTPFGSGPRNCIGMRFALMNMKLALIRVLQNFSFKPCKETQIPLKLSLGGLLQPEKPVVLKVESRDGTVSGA
Sequence of Cytochrome P450 2D6 (P10635 whole entry): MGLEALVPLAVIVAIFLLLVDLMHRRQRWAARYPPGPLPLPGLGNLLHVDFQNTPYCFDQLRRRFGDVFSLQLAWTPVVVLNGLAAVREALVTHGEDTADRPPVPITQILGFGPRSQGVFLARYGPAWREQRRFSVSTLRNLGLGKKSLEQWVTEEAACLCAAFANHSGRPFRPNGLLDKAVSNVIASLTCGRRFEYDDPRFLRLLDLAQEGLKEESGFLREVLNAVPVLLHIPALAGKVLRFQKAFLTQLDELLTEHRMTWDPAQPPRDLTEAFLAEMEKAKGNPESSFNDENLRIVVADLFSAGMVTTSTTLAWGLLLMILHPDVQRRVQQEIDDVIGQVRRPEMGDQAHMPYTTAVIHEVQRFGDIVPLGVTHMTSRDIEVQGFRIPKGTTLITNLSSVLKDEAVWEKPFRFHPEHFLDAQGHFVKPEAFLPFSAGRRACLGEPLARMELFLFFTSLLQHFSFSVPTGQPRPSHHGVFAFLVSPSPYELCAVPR
Sequence of Cytochrome P450 2C19 (P33261 whole entry): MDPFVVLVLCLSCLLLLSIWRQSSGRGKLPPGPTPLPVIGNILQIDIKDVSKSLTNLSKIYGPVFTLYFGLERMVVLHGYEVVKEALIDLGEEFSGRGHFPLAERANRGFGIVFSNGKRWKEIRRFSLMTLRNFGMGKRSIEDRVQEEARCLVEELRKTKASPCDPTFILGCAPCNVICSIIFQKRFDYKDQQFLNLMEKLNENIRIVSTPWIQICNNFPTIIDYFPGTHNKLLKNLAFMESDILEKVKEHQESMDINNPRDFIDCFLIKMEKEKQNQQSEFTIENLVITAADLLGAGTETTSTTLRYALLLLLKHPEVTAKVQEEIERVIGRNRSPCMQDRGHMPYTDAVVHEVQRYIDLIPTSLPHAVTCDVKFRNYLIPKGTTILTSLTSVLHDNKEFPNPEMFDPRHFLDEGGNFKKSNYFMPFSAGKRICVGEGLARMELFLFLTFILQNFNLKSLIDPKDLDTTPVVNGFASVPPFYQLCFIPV
Sequence of Cytochrome P450 2C9 (P11712 whole entry): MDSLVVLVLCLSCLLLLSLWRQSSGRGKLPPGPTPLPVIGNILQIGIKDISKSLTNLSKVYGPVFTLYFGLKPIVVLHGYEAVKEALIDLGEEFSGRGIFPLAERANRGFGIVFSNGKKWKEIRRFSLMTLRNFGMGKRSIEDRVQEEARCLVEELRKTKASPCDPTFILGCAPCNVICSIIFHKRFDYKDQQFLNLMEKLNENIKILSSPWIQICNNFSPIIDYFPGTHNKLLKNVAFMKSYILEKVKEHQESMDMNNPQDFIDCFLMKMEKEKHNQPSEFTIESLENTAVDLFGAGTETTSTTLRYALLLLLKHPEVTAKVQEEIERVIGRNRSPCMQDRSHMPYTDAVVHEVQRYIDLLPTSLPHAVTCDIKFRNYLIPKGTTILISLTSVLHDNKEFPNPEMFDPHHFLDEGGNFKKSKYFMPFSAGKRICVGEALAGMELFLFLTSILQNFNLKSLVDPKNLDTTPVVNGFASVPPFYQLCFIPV

EC50 (Hepatitis C virus [1]) [nM] | IC50 (Hepatitis C virus [2]) [nM] | EC50 (Hepatitis C virus [3]) [nM] | solubility [4] [µM] | SMILES | further results
260 | 170 | 90 | > 500 | O=C(c1nc2c(C(F)(F)F)cc(-c3ccoc3)cn2c1Cl)N1CCC(N2CCCC2=O)CC1 | –
450 | 20 | 1600 | – | O=C(c1nc2c(C(F)(F)F)cc(-c3ccoc3)cn2c1Cl)N1CCN(c2ccccc2)CC1 | –
7.4 | 150 | 18 | > 500 | O=C(c1nc2c(C(F)(F)F)cc(-c3ccoc3)cn2c1Cl)N1CCC(N2CCOC2=O)CC1 | bioavailability [5]: 60%; Drug metabolism (Liver microsomes [6]): Not Active; inhibition (INH) (Cytochrome P450 2C9): Not Active; inhibition (INH) (Cytochrome P450 3A4): Not Active; clearance [7]: 72 mL/min/kg; inhibition (INH) (Cytochrome P450 1A2): Not Active; AUC(0-t) at 24 h [8]: 700 ng·h/mL; inhibition (INH) (Cytochrome P450 2D6): Not Active; Vd [9]: 2.5 L/kg; Drug metabolism (Liver microsomes [10]): Not Active; inhibition (INH) (Cytochrome P450 2C19): Not Active; half-life [11]: 1.9 h
380 | 25 | 270 | – | O=C(c1nc2c(C(F)(F)F)cc(-c3ccoc3)cn2c1Cl)N1CCC(c2ccncc2)C1 (racemic) | –
430 | 24 | 160 | – | O=C(c1nc2c(C(F)(F)F)cc(-c3ccoc3)cn2c1Cl)N1CCN(c2ccccc2)C(=O)C1 | –
0.9 | 43 | 9.7 | > 500 | O=C(c1nc2c(C(F)(F)F)cc(-c3ccoc3)cn2c1Cl)N1CCN([C@H]2CC[C@H](O)CC2)C(=O)C1 | –
> 50000 | > 50000 | > 50000 | > 500 | O=C(c1nc2c(C(F)(F)F)cc(-c3ccoc3)cn2c1Cl)N1CCC(N2CCCC2)CC1 | –
11 | 5.6 | 3.5 | > 500 | O=C(c1nc2c(C(F)(F)F)cc(-c3ccoc3)cn2c1Cl)N1CCN(C2CCCCC2)C(=O)C1 | Drug metabolism (Hepatocyte [12]): Active; Drug metabolism (Hepatocyte [13]): Active
< 55 | – | < 55 | – | CC(C)c1cc(C(F)(F)F)c2nc(C(=O)N3CCC(N4CCOC4=O)CC3)c(Cl)n2c1 | Kapp (Hepatitis C virus [14]): 30 nM
33000 | 9000 | 31000 | > 500 | CC1(C)COC(=O)N1C1CCN(C(=O)c2nc3c(C(F)(F)F)cc(-c4ccoc4)cn3c2Cl)CC1 | –
220 | 5.3 | 110 | – | O=C(c1nc2c(C(F)(F)F)cc(-c3ccoc3)cn2c1Cl)N1CCC(c2cccs2)CC1 | –
